Data: article PMC12325182, “Discovery of novel and potent celastrol derivatives as PRDX1 inhibitors for cancer therapy through structure-based virtual screening” (Frontiers in Pharmacology, 2025)

Tests used:
Assay in all cases: Kinase selectivity assay
Format in all cases: biochemical
MET = MET (Homo sapiens, UniProt P08581); details: target MET; read-out: CP1 IC50
Experimental: (§1) The selectivity of CP1 for PRDX1 was evaluated through kinase selectivity assays against other PRDX family members and a panel of kinases. The experiments were conducted by ICE Biosciences (Beijing, China).

ROS1 = biological target: T1, ROS1 (Homo sapiens, UniProt P08922); details: target ROS1; read-out: CP1 IC50
T1 construct: assay run by ICE Biosciences (Beijing, China)
Experimental: as §1

LCK = LCK (Homo sapiens, UniProt P06239); details: target LCK; read-out: CP1 IC50
Experimental: as §1

FES = biological target: T2, FES (Homo sapiens, UniProt P07332); details: target FES; read-out: CP1 IC50
T2 construct: assay run by ICE Biosciences (Beijing, China)
Experimental: as §1

FLT4 = biological target: T3, FLT4 (Homo sapiens, UniProt P35916); details: target FLT4; read-out: CP1 IC50
T3 construct: assay run by ICE Biosciences (Beijing, China)
Experimental: as §1

FER = FER (Homo sapiens, UniProt P16591); details: target FER; read-out: CP1 IC50
Experimental: as §1

EPHB3 = EPHB3 (Homo sapiens, UniProt P54753); details: target EPHB3; read-out: CP1 IC50
Experimental: as §1

NTRK1 = NTRK1 (Homo sapiens, UniProt P04629)
Experimental: as §1

BLK = biological target: T4, BLK (Homo sapiens, UniProt P51451); details: target BLK; read-out: CP1 IC50
T4 construct: ICE Biosciences (Beijing, China), ran the assays
Experimental: as §1

FYN = biological target: T5, FYN (Homo sapiens, UniProt P06241); details: target FYN; read-out: CP1 IC50
T5 construct: assay run by ICE Biosciences (Beijing, China)
Experimental: as §1

ERBB2 = ERBB2 (Homo sapiens, UniProt P04626); details: target ERBB2; read-out: CP1 IC50
Experimental: as §1

MERTK = MERTK (Homo sapiens, UniProt Q12866); details: target MERTK; read-out: CP1 IC50
Experimental: as §1

YES1 = biological target: T6, YES1 (Homo sapiens, UniProt P07947); details: target YES1; read-out: CP1 IC50
T6 construct: ICE Biosciences (Beijing, China), a contract laboratory that ran the assay
Experimental: as §1

EGFR = biological target: T7, EGFR (Homo sapiens, UniProt P00533); details: target EGFR; read-out: CP1 IC50
T7 construct: ICE Biosciences (Beijing, China), ran the assays
Experimental: as §1

FGR = biological target: T8, FGR (Homo sapiens, UniProt P09769); details: target FGR; read-out: CP1 IC50
T8 construct: assay run by ICE Biosciences (Beijing, China)
Experimental: as §1

EPHA2 = biological target: T9, EPHA2 (Homo sapiens, UniProt P29317); details: target EPHA2; read-out: CP1 IC50
T9 construct: ICE Biosciences (Beijing, China), ran the assays
Experimental: as §1

SRC = biological target: T10, SRC (Homo sapiens, UniProt P12931); details: target SRC; read-out: CP1 IC50
T10 construct: assay run by ICE Biosciences (Beijing, China)
Experimental: as §1

INSR = INSR (Homo sapiens, UniProt P06213); details: target INSR; read-out: CP1 IC50
Experimental: as §1

SYK = biological target: T11, SYK (Homo sapiens, UniProt P43405); details: target SYK; read-out: CP1 IC50
T11 construct: assay run by ICE Biosciences (Beijing, China)
Experimental: as §1

JAK1 = JAK1 (Homo sapiens, UniProt P23458); details: target JAK1; read-out: CP1 IC50
Experimental: as §1

PRDX6 = biological target: T12, PRDX6 (Homo sapiens, UniProt P30041)
T12 construct: ICE Biosciences (Beijing, China), ran the assays
Experimental: as §1

EPHB4 = EPHB4 (Homo sapiens, UniProt P54760); details: target EPHB4; read-out: CP1 IC50
Experimental: as §1

PRDX2 = biological target: T13, PRDX2 (Homo sapiens, UniProt P32119); details: target PRDX2; read-out: CP1 IC50
T13 construct: ICE Biosciences (Beijing, China), ran the assays
Experimental: as §1

ABL2 = biological target: T14, ABL2 (Homo sapiens, UniProt P42684); details: target ABL2; read-out: CP1 IC50
T14 construct: ICE Biosciences (Beijing, China), ran the assays
Experimental: as §1

RET = biological target: T15, RET (Homo sapiens, UniProt P07949); details: target RET; read-out: CP1 IC50
T15 construct: assay run by ICE Biosciences (Beijing, China)
Experimental: as §1

INSRR = INSRR (Homo sapiens, UniProt P14616); details: target INSRR; read-out: CP1 IC50
Experimental: as §1

JAK2 = JAK2 (Homo sapiens, UniProt O60674); details: target JAK2; read-out: CP1 IC50
Experimental: as §1

TEC = biological target: T16, TEC (Homo sapiens, UniProt P42680); details: target TEC; read-out: CP1 IC50
T16 construct: assay run by ICE Biosciences (Beijing, China)
Experimental: as §1

ITK = ITK (Homo sapiens, UniProt Q08881); details: target ITK; read-out: CP1 IC50
Experimental: as §1

JAK3 = JAK3 (Homo sapiens, UniProt P52333); details: target JAK3; read-out: CP1 IC50
Experimental: as §1

HCK = biological target: T17, HCK (Homo sapiens, UniProt P08631); details: target HCK; read-out: CP1 IC50
T17 construct: ICE Biosciences (Beijing, China), ran the assays
Experimental: as §1

IGF1R = biological target: T18, IGF1R (Homo sapiens, UniProt P08069); details: target IGF1R; read-out: CP1 IC50
T18 construct: ICE Biosciences (Beijing, China), ran the assays
Experimental: as §1

LTK = LTK (Homo sapiens, UniProt P29376); details: target LTK; read-out: CP1 IC50
Experimental: as §1

FGFR4 = biological target: T19, FGFR4 (Homo sapiens, UniProt P22455); details: target FGFR4; read-out: CP1 IC50
T19 construct: assay run by ICE Biosciences (Beijing, China)
Experimental: as §1

Measured: IC50

Sequence of EPHB3 (P54753 34-998): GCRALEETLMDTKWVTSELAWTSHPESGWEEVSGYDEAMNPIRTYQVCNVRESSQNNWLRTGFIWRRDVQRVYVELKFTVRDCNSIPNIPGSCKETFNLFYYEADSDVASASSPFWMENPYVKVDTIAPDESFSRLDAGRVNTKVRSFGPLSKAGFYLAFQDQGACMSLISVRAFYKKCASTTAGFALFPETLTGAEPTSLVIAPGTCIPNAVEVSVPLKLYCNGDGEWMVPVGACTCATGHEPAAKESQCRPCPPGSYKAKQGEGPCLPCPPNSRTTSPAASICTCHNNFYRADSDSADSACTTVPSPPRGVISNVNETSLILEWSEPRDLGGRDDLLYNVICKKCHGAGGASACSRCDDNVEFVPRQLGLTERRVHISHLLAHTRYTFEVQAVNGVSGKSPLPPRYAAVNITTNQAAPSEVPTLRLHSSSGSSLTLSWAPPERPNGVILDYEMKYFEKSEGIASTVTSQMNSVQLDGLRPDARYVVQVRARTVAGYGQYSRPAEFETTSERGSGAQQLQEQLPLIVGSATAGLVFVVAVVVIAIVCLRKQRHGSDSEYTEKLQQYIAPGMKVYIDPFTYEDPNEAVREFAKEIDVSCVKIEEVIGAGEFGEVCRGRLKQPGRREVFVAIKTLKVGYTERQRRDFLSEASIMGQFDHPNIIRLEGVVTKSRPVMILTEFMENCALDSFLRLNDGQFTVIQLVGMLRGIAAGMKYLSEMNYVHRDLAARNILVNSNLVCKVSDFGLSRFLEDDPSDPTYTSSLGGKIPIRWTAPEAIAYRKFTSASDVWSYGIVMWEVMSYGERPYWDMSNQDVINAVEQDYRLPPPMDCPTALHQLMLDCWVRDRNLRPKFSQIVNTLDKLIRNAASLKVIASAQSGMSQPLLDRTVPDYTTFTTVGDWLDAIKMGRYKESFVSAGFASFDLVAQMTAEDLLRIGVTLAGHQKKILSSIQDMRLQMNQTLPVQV
Sequence of JAK2 (O60674 whole entry): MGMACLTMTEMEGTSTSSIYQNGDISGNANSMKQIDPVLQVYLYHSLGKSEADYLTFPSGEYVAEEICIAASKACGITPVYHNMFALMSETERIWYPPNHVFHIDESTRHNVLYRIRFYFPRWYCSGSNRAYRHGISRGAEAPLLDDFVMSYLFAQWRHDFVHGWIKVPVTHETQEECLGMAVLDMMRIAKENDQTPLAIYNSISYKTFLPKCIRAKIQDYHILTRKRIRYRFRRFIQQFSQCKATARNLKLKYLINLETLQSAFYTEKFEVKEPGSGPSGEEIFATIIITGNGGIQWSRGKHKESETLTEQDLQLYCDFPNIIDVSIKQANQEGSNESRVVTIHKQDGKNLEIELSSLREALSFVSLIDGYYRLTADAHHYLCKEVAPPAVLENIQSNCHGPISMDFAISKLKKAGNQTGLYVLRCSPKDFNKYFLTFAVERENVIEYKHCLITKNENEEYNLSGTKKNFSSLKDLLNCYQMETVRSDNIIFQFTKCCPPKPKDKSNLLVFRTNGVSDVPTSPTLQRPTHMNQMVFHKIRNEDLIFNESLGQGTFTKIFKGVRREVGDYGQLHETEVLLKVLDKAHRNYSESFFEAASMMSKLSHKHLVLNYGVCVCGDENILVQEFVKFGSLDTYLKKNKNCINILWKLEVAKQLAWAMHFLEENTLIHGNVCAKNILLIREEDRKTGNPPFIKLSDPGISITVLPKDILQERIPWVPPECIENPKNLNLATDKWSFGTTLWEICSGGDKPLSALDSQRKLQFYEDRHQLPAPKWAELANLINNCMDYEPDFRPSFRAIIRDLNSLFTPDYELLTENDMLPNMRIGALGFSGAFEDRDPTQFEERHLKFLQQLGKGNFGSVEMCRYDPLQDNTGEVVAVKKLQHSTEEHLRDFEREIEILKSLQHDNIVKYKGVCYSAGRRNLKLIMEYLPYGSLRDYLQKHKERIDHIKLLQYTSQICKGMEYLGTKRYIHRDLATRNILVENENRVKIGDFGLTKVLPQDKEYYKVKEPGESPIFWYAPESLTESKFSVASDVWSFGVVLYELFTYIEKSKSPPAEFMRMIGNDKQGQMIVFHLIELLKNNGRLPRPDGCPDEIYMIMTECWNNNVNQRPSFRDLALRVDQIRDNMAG
T7 sequence (P00533 25-1210): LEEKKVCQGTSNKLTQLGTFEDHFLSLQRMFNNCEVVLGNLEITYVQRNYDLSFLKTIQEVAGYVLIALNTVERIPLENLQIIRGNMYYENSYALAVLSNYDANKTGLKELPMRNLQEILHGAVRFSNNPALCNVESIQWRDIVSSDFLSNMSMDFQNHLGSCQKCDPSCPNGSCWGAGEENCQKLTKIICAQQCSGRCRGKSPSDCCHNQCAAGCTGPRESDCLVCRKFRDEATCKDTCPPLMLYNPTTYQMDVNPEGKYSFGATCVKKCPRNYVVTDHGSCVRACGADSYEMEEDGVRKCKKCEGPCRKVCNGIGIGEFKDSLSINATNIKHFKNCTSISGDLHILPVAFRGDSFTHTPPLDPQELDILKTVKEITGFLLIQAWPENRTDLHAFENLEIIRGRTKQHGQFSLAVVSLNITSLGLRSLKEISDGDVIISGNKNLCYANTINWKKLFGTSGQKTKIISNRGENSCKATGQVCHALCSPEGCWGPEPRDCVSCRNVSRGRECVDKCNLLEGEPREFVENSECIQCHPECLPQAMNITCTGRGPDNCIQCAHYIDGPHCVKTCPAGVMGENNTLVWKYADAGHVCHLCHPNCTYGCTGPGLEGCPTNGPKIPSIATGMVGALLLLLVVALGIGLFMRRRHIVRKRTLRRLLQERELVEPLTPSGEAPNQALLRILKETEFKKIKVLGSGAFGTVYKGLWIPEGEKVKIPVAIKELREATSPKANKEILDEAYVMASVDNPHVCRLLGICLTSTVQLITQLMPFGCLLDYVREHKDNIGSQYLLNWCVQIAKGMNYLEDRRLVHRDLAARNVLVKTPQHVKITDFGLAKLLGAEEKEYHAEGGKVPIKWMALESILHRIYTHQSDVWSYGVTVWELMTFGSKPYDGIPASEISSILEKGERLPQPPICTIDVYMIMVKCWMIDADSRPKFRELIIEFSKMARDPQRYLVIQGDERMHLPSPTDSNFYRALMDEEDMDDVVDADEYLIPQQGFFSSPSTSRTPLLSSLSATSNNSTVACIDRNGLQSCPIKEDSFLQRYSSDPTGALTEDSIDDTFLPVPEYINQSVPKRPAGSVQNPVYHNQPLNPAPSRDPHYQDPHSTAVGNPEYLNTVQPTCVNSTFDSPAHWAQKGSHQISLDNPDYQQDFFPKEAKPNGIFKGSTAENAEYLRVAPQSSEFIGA
Sequence of MERTK (Q12866 21-999): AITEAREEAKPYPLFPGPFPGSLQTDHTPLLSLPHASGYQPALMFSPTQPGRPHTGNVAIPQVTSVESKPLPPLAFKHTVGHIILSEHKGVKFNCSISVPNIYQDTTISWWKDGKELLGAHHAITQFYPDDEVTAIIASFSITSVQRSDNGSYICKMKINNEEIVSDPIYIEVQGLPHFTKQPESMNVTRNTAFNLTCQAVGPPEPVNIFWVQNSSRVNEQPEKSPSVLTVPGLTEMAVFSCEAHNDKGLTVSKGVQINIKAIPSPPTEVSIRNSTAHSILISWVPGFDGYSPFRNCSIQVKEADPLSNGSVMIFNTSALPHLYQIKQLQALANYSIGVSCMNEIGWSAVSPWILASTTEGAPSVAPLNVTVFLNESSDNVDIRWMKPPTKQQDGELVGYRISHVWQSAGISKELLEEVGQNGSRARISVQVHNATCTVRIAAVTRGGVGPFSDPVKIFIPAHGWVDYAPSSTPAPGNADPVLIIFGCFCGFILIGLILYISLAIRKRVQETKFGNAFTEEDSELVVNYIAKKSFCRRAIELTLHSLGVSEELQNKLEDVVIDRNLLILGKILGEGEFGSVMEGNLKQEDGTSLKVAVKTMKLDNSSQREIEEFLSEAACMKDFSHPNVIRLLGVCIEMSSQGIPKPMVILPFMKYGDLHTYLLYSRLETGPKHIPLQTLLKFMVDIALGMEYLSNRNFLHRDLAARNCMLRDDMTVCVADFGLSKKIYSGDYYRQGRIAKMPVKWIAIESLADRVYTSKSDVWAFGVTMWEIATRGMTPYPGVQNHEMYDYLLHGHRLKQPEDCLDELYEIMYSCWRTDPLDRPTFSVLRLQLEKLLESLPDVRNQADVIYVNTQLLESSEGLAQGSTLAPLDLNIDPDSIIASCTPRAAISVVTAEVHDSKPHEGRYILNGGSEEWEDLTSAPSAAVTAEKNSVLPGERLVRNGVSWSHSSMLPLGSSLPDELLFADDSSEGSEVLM
T17 sequence (P08631 whole entry): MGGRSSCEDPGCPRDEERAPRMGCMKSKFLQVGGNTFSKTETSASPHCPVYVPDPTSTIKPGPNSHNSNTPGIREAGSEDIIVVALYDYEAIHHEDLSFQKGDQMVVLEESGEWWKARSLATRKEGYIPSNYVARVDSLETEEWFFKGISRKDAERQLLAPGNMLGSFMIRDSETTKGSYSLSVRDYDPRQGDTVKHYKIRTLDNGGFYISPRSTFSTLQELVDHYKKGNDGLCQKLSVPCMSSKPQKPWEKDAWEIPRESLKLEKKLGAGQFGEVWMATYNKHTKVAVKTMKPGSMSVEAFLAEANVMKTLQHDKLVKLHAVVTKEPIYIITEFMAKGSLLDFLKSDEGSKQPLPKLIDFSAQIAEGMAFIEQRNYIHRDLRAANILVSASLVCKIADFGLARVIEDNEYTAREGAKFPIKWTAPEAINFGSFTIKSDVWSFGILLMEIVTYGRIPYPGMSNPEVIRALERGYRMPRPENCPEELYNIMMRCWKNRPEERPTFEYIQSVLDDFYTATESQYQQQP
T13 sequence (P32119 whole entry): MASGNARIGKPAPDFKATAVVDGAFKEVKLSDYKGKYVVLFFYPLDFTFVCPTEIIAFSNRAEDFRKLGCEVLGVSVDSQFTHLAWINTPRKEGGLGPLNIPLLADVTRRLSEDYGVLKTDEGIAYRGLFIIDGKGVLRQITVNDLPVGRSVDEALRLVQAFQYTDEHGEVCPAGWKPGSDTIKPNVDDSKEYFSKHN

CC1=C(CC(=O)/C=C/c2cccc(CO)c2)C(=O)C=C2C1=CC=C1[C@@]2(C)CC[C@@]2(C)C3C[C@](C)(C(=O)CCc4nc(C(O)C(O)O)c(C)nc4C)CC[C@]3(C)CC[C@]12C (stereo partly shown) [CP1]
> 30 µM: all assays above
